One experiment has as its target T1, CRBN-DDB1 (Homo sapiens, UniProt Q96SW2).
T1 construct: 6xHis (given for the complex); made in house; host or cells: Sf9 cells (Invitrogen), pFastBac
As to the kind of experiment: CRBN-DDB1 Ligand-Displacement AlphaScreen Assay (thalidomide competition).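 Also: streptavidin donor and nickel chelate acceptor bead proximity signal after 30 min incubation, normalized with no-protein background as 0% and DMSO wells as 100% activity.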 Type of experiment: binding. Particulars: read-out: CRBN alpha IC50.

Another experiment has as its system 797. As to the kind of experiment: Cell viability, 797 cells (Table 4). Particulars: read-out: IC50 (nM) 797. Type of experiment: cell-based.
The target in experiment [1] is T2, BRD4 adjoined to nanoluciferase (Nluc) (Homo sapiens, UniProt O60885+Q96SW2).
T2 construct: expressed in transfected cells
As to the kind of experiment: BRD4 Dual Luciferase Assay.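 As to all read-outs here: transduced reporter cells exposed to compound for 4 h, then Nluc and Fluc luminescence read, each normalized to DMSO controls and expressed as Nluc/Fluc ratio per well.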 Type of experiment: cell-based. Particulars: for Emax: BRD4 remaining at Emax, read-out: BRD4− Emax (percent remaining).

The mark [2] stands for this setting: 4 hours, read-out: max degradation (dual luc).
Setting [3] is: read-out: BRD4 max degradation(%) Dual Luciferase.

Read-outs that look alike come from different tables or passages of the source.

Usually IC50 stands for the midpoint of a concentration-inhibition curve. Regarding `O=C1CCC(N2C(=O)c3ccc(NCc4ccco4)cc3C2=O)C(=O)N1` [Compound D-28, 2-(2,6-dioxopiperidin-3-yl)-5-((furan-2-ylmethyl)amino)isoindoline-1,3-dione], on CRBN-DDB1, the IC50 is 40.1 nM. As for `CC(C)(C)OC(=O)NCCNc1cccc2c1C(=O)N(C1CCC(=O)NC1=O)C2=O` [Compound D-29, tert-butyl (2-((2-(2,6-dioxopiperidin-3-yl)-1,3-dioxoisoindolin-4-yl)amino)ethyl)carbamate], the IC50 on CRBN-DDB1 turned out to be 140 nM.

For `O=C1CCC(N2C(=O)c3ccc(NC(=O)CCl)cc3C2=O)C(=O)N1` [Compound D-32, 2-chloro-N-(2-(2,6-dioxopiperidin-3-yl)-1,3-dioxoisoindolin-5-yl)acetamide], the IC50 at CRBN-DDB1 was 21.4 nM.

In the case of `O=C1CCC(N2C(=O)c3c(Cl)ccc(Cl)c3C2=O)C(=O)N1` [Compound D-51, 4,7-dichloro-2-(2,6-dioxopiperidin-3-yl)isoindoline-1,3-dione], the IC50 on CRBN-DDB1 came out at 1170 nM.

With `C[C@@]1(N2C(=O)c3cccc(O)c3C2=O)CCC(=O)NC1=O` [Compound D-52, (R)-4-hydroxy-2-(3-methyl-2,6-dioxopiperidin-3-yl)isoindoline-1,3-dione], on CRBN-DDB1, the IC50 came out at 39500 nM. Regarding `C[C@]1(N2C(=O)c3cccc(O)c3C2=O)CCC(=O)NC1=O` [Compound D-53, (S)-4-hydroxy-2-(3-methyl-2,6-dioxopiperidin-3-yl)isoindoline-1,3-dione], the IC50 at CRBN-DDB1 was found to be 56100 nM.

Take `C[C@@]1(N2C(=O)c3cccc(OCC(=O)O)c3C2=O)CCC(=O)NC1=O` [Compound D-54, (R)-2-((2-(3-methyl-2,6-dioxopiperidin-3-yl)-1,3-dioxoisoindolin-4-yl)oxy)acetic acid]: the IC50 on CRBN-DDB1 is > 50000 nM. `C[C@]1(N2C(=O)c3cccc(OCC(=O)O)c3C2=O)CCC(=O)NC1=O` [Compound D-55, (S)-2-((2-(3-methyl-2,6-dioxopiperidin-3-yl)-1,3-dioxoisoindolin-4-yl)oxy)acetic acid]: on CRBN-DDB1, the IC50 was > 50000 nM. On the same count and under the same terms, the result for `O=C1CCC(N2C(=O)c3cccc([N+](=O)[O-])c3C2=O)C(=O)N1` [Compound D-56] reads 3060 nM; that for `O=C1CCC(N2C(=O)c3ccc(Br)cc3C2=O)C(=O)N1` [Compound D-58], 715 nM; that for `CCOc1cccc2c1C(=O)N(C1CCC(=O)N(CC)C1=O)C2=O` [Compound D-59], > 50000 nM. Same read-out and setting: in the case of `CCOc1cccc2c1C(=O)N(C1CCC(=O)NC1=O)C2=O` [Compound D-60] it was 259 nM. Consider `O=C1CCC(N2C(=O)c3ccc([N+](=O)[O-])cc3C2=O)C(=O)N1` [Compound D-61], for which the IC50 on CRBN-DDB1 was 2660 nM. Still for that read-out and setting: the result for `O=C(O)COc1cccc2c1C(=O)N(C1CCC(=O)NC1=O)C2=O` [Compound D-64] reads 2130 nM; that for `COC(=O)COc1cccc2c1C(=O)N(C1CCC(=O)NC1=O)C2=O` [Compound D-65], 1120 nM. For `COc1cc(C(=O)NCCCCNC(=O)COc2cccc3c2C(=O)N(C2CCC(=O)NC2=O)C3=O)ccc1Nc1ccc2c(n1)N(C1CCCC1)[C@H](C)C(=O)N2C` (stereo partly drawn) [dBET16], the IC50 in the experiment on 797 was 4900 nM. On to `Cc1cnc(Nc2ccc(N3CCN(C(=O)CCCNC(=O)COc4cccc5c4C(=O)N(C4CCC(=O)NC4=O)C5=O)CC3)cc2)nc1Nc1cccc(S(=O)(=O)NC(C)(C)C)c1` (stereo not drawn) [dBET20], for which, in the experiment with 797, the IC50 is 14700 nM. The Dmax is 7.04% in experiment [1] (setting [2]) and < 10% in experiment [1] (setting [3]). In general, Emax refers to the greatest response seen or fitted, relative to the assay's reference. For `Cc1sc2c(c1C)C(c1ccc(Cl)cc1)=N[C@@H](CC(=O)NCCCCCCCCOc1cccc3c1C(=O)N(C1CCC(=O)NC1=O)C3=O)c1nnc(C)n1-2` (stereo partly drawn) [dBET21], the IC50 in the experiment on 797 was found to be 630 nM. Besides, the Emax in experiment [1] amounted to 78.1%. Further, the Dmax in experiment [1] (setting [3]) amounted to 21%. With `Cc1sc2c(c1C)C(c1ccc(Cl)cc1)=N[C@@H](CC(=O)NCCOCCOCCNC(=O)COc1cccc3c1C(=O)N(C1CCC(=O)NC1=O)C3=O)c1nnc(C)n1-2` (stereo partly drawn) [dBET24], the “Conc@Emax” value in experiment [1] is 5 µM. For the same compound, the Dmax was found to be 50.4% in experiment [1] (setting [2]) and 50% in experiment [1] (setting [3]). Further, the Emax in experiment [1] worked out at 43%.

As to `COC(=O)C[C@@H]1N=C(c2ccc(Cl)cc2)c2c(sc(C)c2C(=O)NCCCCNC(=O)COc2cccc3c2C(=O)N(C2CCC(=O)NC2=O)C3=O)-n2c(C)nnc21` (stereo partly drawn) [dBET25], the IC50 in the experiment on 797 was determined as 6860 nM. Also, the figures for the Dmax in experiment [1] (setting [2]) and in experiment [1] (setting [3]) were 41.7% and 42%, respectively. The like results for `COC(=O)C[C@@H]1N=C(c2ccc(Cl)cc2)c2c(sc(C)c2C(=O)NCCCCCCCCNC(=O)COc2cccc3c2C(=O)N(C2CCC(=O)NC2=O)C3=O)-n2c(C)nnc21` (stereo partly drawn) [dBET26] were, in that order, 7020 nM, 39.9% and 40%.

Regarding `Cc1sc2c(c1C)C(c1ccc(Cl)cc1)=N[C@@H](CC(=O)NCCOCCOc1cccc3c1C(=O)N(C1CCC(=O)NC1=O)C3=O)c1nnc(C)n1-2` (stereo partly drawn) [dBET27], the “Conc@Emax” value in experiment [1] was determined as 0.5 µM. The Dmax in experiment [1] (setting [2]) and in experiment [1] (setting [3]) was 30% throughout. In experiment [1], the Emax came out at 67.3%. Consider `Cc1sc2c(c1C)C(c1ccc(Cl)cc1)=N[C@@H](CC(=O)NCCCCCCOc1cccc3c1C(=O)N(C1CCC(=O)NC1=O)C3=O)c1nnc(C)n1-2` (stereo partly drawn) [dBET29], for which the “Conc@Emax” value in experiment [1] came out at 0.05 µM. The Dmax in experiment [1] (setting [2]) and in experiment [1] (setting [3]) was 19% each time. Besides, the Emax in experiment [1] stood at 75.5%. As for `Cc1c(C(=O)NCCCCCCCCNC(=O)COc2cccc3c2C(=O)N(C2CCC(=O)NC2=O)C3=O)sc2c1C(c1ccc(Cl)cc1)=N[C@@H](CC(=O)NCCCN1CCN(C)CC1)c1nnc(C)n1-2` (stereo partly drawn) [dBET31], in experiment [1], the Emax was 45.6%. `Cc1sc2c(c1C)C(c1ccc(Cl)cc1)=N[C@@H](CC(=O)NCCCCNC(=O)CNc1cccc3c1CN(C1CCC(=O)NC1=O)C3=O)c1nnc(C)n1-2` (stereo partly drawn) [dBET35]: in the experiment on 797, the half-maximal inhibitory concentration (IC50) amounted to 372 nM. Further, the Dmax is 11.7% in experiment [1] (setting [2]) and 12% in experiment [1] (setting [3]). As for `Cc1sc2c(c1C)C(c1ccc(Cl)cc1)=N[C@@H](CC(=O)NCCCCNC(=O)Cc1cccc3c1C(=O)N(C1CCC(=O)NC1=O)C3=O)c1nnc(C)n1-2` (stereo partly drawn) [dBET36], in the experiment on 797, the IC50 stood at 725 nM. Turning to `Cc1sc2c(c1C)C(c1ccc(Cl)cc1)=N[C@@H](CC(=O)NCCCCCC(=O)NCc1cccc3c1C(=O)N(C1CCC(=O)NC1=O)C3=O)c1nnc(C)n1-2` (stereo partly drawn) [dBET37], in the experiment with 797, the half-inhibitory concentration (IC50) is 1020 nM. Moreover, the results for the Dmax in experiment [1] (setting [2]) and in experiment [1] (setting [3]) were 46.4% and 46%, respectively.

`Cc1sc2c(c1C)C(c1ccc(Cl)cc1)=N[C@@H](CC(=O)NCCCOCCCNC(=O)COc1cccc3c1C(=O)N(C1CCC(=O)NC1=O)C3=O)c1nnc(C)n1-2` (stereo partly drawn) [dBET38]: the IC50 with 797 amounted to 770 nM.

In the case of `Cc1sc2c(c1C)C(c1ccc(Cl)cc1)=N[C@@H](CC(=O)NCCOCCOCCOc1cccc3c1C(=O)N(C1CCC(=O)NC1=O)C3=O)c1nnc(C)n1-2` (stereo partly drawn) [dBET40], in the experiment on 797, the IC50 stood at 299 nM. The Dmax in experiment [1] (setting [3]) was < 10%. With `Cc1sc2c(c1C)C(c1ccc(Cl)cc1)=N[C@@H](CC(=O)NCc1ccc(CNC(=O)COc3cccc4c3C(=O)N(C3CCC(=O)NC3=O)C4=O)cc1)c1nnc(C)n1-2` (stereo partly drawn) [dBET41], the IC50 in the experiment on 797 amounted to 726 nM.

In the case of `COc1cc(C(=O)NCCCCCCCCNC(=O)COc2cccc3c2C(=O)N(C2CCC(=O)NC2=O)C3=O)ccc1Nc1ccc2c(n1)N(C1CCCC1)[C@H](C)C(=O)N2C` (stereo partly drawn) [dBET45], the IC50 in the experiment with 797 turned out to be 3450 nM.

As to `COc1cc(C(=O)NCCCOCCOCCOCCCNC(=O)COc2cccc3c2C(=O)N(C2CCC(=O)NC2=O)C3=O)ccc1Nc1ccc2c(n1)N(C1CCCC1)[C@H](C)C(=O)N2C` (stereo partly drawn) [dBET46], the IC50 with 797 stood at 9450 nM.

The values above are taken from patent publication US10464925B2, “Methods to induce targeted protein degradation through bifunctional molecules” (Dana-Farber Cancer Institute, Inc., priority 2015, dated 2019).
